These results are taken from patent publication US20230144203A1 (SHANGHAI SENHUI MEDICINE CO., LTD., priority 2020, published 2023).

Type in all cases: cell-based
In one test the test system is A549. Briefly: Test Example 2 in vitro cytotoxic activity screening (CTG). Here is the method: (§1) The CTG is used for detecting the ATP content in the experiment, and the survival condition of the tumor cells is reflected.
(§2) A549, SKBR3 and MDA-MB-468 were digested with trypsin, and each was resuspended in culture medium to a cell density of 2.2×10^4 cells/mL, and 135 μL of cell suspension was added to each well in columns 2 to 11 of a 96-well plate, and column 12 was set as blank control. The cells were incubated in an incubator for 24 h at 37° C. with 5% CO2.
(§3) a) Stock solution preparation: the test compound and positive control drug were dissolved in DMSO to give a stock solution at a concentration of 5 mM.
(§4) b) Drug preparation plate 1: stock solution in column 1 was initially diluted 40-fold, and 3-fold gradient dilutions were performed sequentially in column 2 to column 11. Column 12 was filled with DMSO.
(§5) c) Drug preparation plate 2: 196 μL of the corresponding culture medium was added into columns 2 to 11, and 4 μL of culture medium was pipetted from column 3 to column 12 of drug preparation plate 1 to column 2 to column 11 of drug preparation plate
(§6) 15 μL of culture medium was pipetted from the drug preparation plate 2 and added into the plated cells. The cells were continuously incubated in an incubator for 5 h at 37° C. with 5% CO2.
(§7) 2.4) CTG assay (Cell Titer-Glo™, luminescent cell viability assay): the cell plates were removed and balanced to room temperature. 75 μL of CTG was added into each well and reacted at room temperature for 10 min in the dark. The absorption value was read using a microplate reader and IC50 was calculated.

A further test deals with SKBR3. Described as above. The method, then: as §1, §2, §3, §4, §5, §6, §7
The test system of another test is MDA-MB-468. Described as above. The method, then:
as §1, §2, §3, §4, §5, §6, §7

The next test concerns Miapaca2 tumor cells. Briefly: Test Example 4 cell killing study (CTG, 6 days). To be noted: Homo sapiens, MIA PaCa-2, 144 h, 6 days culture, read-out: IC50 (Miapaca). The source says:
(§8) The objective of this study is to test the inhibitory activity of the anti-TROP-2 antibody (PD3)-drug conjugate of the present disclosure against the proliferation of different tumor cell lines: Miapaca2 tumor cells (human pancreatic cancer cells, Nanjing Kebai Biotechnology Co., Ltd., Cat #CBP60544), Fadu tumor cells (human squamous cell carcinoma, ATCC, Cat #HTB-43), SK-OV-3 (human ovarian cancer cells, ATCC, Cat #HTB-77), K562 (human chronic granulocytic leukemia cells, ATCC, Cat #CCL-243), HCC827 (human lung cancer cells, ATCC, Cat #CRL-2868) and BXPC3 (human pancreatic cancer cells, ATCC, Cat #CRL-1687). The cells were treated in vitro with the antibody drug conjugate at different concentrations. After 6 days of culture, the proliferation of cells was tested using CTG (CellTiter-Glo® Luminescent Cell Viability Assay, Promega, Cat #G7573) reagents, and the in vitro activity of the antibody drug conjugate was evaluated according to IC50 value.
(§9) 2) Cell plating: on the day of the study, after the cells were digested with Trypsin (0.25% Trypsin-EDTA (1×), Life Technologies, Cat #25200-072), MiaPaCa2, Fadu, SK-OV-3, K562, HCC827 and BXPC3 were suspended in cell suspensions using the corresponding media to a density of 3.7×10^3 cells/mL, and 135 μL of suspension was added into each well of a 96-well plate (coming, Cat #3903) to culture 500 cells per well at 37° C. for 24 h.
(§10) 3) Drug preparation: the mother liquor of the test ADC was first adjusted to have a concentration of 4 μM and was added to the first column of a drug preparation plate (coming, Cat #3599). The plate was diluted 5-fold in gradient from column 2 to column 9, with PBS in column 10. 15 μL of the mother liquor in each well was added to the cell culture plate.
(§11) 4) CTG assay: after being cultured at 37° C. for 6 days, the cell culture plate was removed and balanced to room temperature. 75 μL of CTG was added into each well and reacted at room temperature for 10 min in the dark. The absorption value was read using a microplate reader (BMG labtech, PHERAstar FS).
(§12) Data were processed and analyzed using Graphpad Prism 5.

The test system of a further test is SK-OV-3. Briefly: Test Example 4 cell killing study (CTG, 6 days). To be noted: Homo sapiens, SK-OV-3, 144 h, 6 days culture, read-out: IC50 (SKOV3).
Description: as §8, §9, §10, §11, §12

For another test, the system named is Fadu tumor cells. Briefly: Test Example 4 cell killing study (CTG, 6 days). The conditions noted are these: Homo sapiens, 144 h, 6 days culture.
Description: as §8, §9, §10, §11, §12

In a further test the test system is BXPC3. Briefly: Test Example 4 cell killing study (CTG, 6 days). To be noted: Homo sapiens, BXPC-3, 144 h, 6 days culture.
Description: as §8, §9, §10, §11, §12

In the next test the test system is HCC827. Briefly: Test Example 4 cell killing study (CTG, 6 days). To be noted: Homo sapiens, HCC827, 144 h, 6 days culture.
Description: as §8, §9, §10, §11, §12

In the next test the test system is K562. Briefly: Test Example 4 cell killing study (CTG, 6 days). To be noted: Homo sapiens, K562, 144 h, 6 days culture.
Description: as §8, §9, §10, §11, §12

SMILES strings stand for the structures.

One may read the IC50 as the concentration that inhibits the measured activity by half. As for `C=C1C[C@@H]2CC[C@@]34C[C@H]5O[C@H]6[C@@H](O3)[C@H]3O[C@H](CC[C@@H]3O[C@H]6[C@H]5O4)CC(=O)C[C@@H]3[C@@H](OC)[C@@H](C[C@H](O)CO)O[C@H]3C[C@H]3O[C@@H](CC[C@@H]1O2)C[C@@H](C)C3=C` [Compound E1-30, reference compound], the Maximum inhibition in the test with A549 (A549, CTG, incubated 5 h) was 62.46%; in the test on SKBR3 (SKBR3, CTG, incubated 5 h) it was 96.15%; in the test on MDA-MB-468 (MDA-MB-468, CTG, incubated 5 h) it was 90.49%. For the same compound, the IC50 in the test with A549 (Homo sapiens, A549, 5 h) is 781 pM; in the test with SKBR3 (Homo sapiens, SK-BR-3, 5 h) it was 166 pM; in the test with MDA-MB-468 (Homo sapiens, MDA-MB-468, 5 h) it was 360 pM; in the test with Miapaca2 tumor cells it was 450 pM; in the test with SK-OV-3, 170 pM; in the test on Fadu tumor cells, 320 pM. Further, the IC50 with BXPC3 came to 230 pM; with HCC827, 310 pM; with K562 it was 390 pM.
